Patent US20190183812A1, “Compounds For The Treatment Of Neuromuscular Disorders” (NMD PHARMA A/S, priority 2017, published 2019)

Legend:
[1] = test system: rats; assay: Rotarod running performance in passive immunization (MAB35) rat model of myasthenia gravis; assay type: in vivo
Description: FIG. 10. […] Prior to I.P. injection of MAB35 the animals had been familiarized to the rotarod over three training sessions distributed over two days. […] After this treatment performance was monitored every second hour. *Indicates significant different as evaluated using student t-test.
(§1) In both series of experiments, running performance was tested on a rotarod using a protocol where the rod was accelerated gradually over a 5 min period, and the running time and covered distance before falling off the rod were measured. […] Experiments with tubocurarine were carried out over two days, and on each day the effect of tubocurarine on running performance was tested. On the first day only tubocurarine was injected. […] On the second day, the animals were first allowed to run on the rotarod, and all animals performed normally. […] The allocation of the animals into the two groups (C8 or sham) was random and unknown to the experimenter (blinded experimental design).
In experiments with MAB35, animals were first familiarized with the rotarod over two consecutive days and then injected I.P. with MAB35. After injection, rotarod performance was then again monitored regularly over the consecutive two days. […] A considerable number of animals, however, became moribund failing to walk and they had altered ventilation (rapid) and pronounced ptosis. These animals were not included in experiments. […]

[2] = test system: rat soleus muscles; assay: Mg2+ concentration required to depress nerve-stimulated force by 50% (Kd,Mg2+), combination with 3,4-AP
Description: FIGS. 6A-6E. […] Muscles from 4-week-old rats were stimulated to contract by activating the motor nerve with short duration pulses in field stimulation. Muscles contracted every 10 min for 2 s in response to 30 Hz stimulation. Four different experimental conditions were used. […] C) similar to A) but this muscle had been pre-incubated with 3,4-AP. […] The force integral (AUC) was determined at each extracellular Mg^2+ concentration. AUC was plotted against Mg^2+ concentration and the data was fitted to a sigmoidal function. This provided the extracellular Mg^2+ concentration that was required to reduce the nerve-stimulated force to 50% (Mg50) under the four different conditions (see Table 5).
While the use of tubocurarine mimics conditions with reduced neuromuscular transmission due to post-synaptic dysfunction (myasthenia gravis, neuromuscular blockade), the experiments with elevated extracellular Mg^2+ mimics conditions with pre-synaptic dysfunction akin to a range of neuromuscular disorders including Lambert Eaton syndrome, motor neuron disorders and polyneuropathy. Patients with Lambert Eaton syndrome are commonly treated with inhibitors of voltage gated K^+ channels such as 3,4-diaminopyridine (3,4-AP). Based on this it was determined whether recovery of nerve-stimulated force at elevated extracellular Mg^2+ with CIC-1 inhibiting compounds could be added to force recovery with 3,4-AP. […] FIG. 6A-D show recordings of nerve-stimulated force production at different Mg^2+ concentrations when tested under these four experimental conditions. […] To quantify the effect of compounds on Mg^2+ sensitivity the force at the different Mg^2+ concentrations was determined. In plots of nerve-stimulated force against Mg^2+ concentration (FIG. 6E) the Kd,Mg^2+ was determined by fitting four parameter sigmoidal function to the data. Kd, Mg^2+ for the different compounds have been collected in Table 5.

[3] = molecular target: rat soleus muscles; assay: Tubocurarine concentration required to depress nerve-stimulated force by 50% (Kd,tub), combination with acetylcholinesterase inhibitors
Description: FIGS. 5A-5E. […] Muscles from 4-week-old rats were stimulated to contract by activating the motor nerve with short duration pulses in field stimulation. Muscles contracted every 10 min for 2 s in response to 30 Hz stimulation. Four different experimental conditions were used. […] After this pre-incubation, increasing concentrations of tubocurarine were added to the bath solutions with 60 min (corresponding to six contractions) between each increase in tubocurarine. […] FIG. 5C similar to FIG. 5A but this muscle had been pre-incubated with neostigmine. […] The force integral (AUC) was determined at each tubocurarine concentration. Such AUC determinations were plotted against tubocurarine concentration for each muscle.
CIC-1 is a novel target in treatment of neuromuscular complications and it was therefore explored whether this approach for symptomatic treatment could be used in combination with existing symptomatic treatment approaches. In myasthenia gravis, which in isolated muscles was mimicked by tubocurarine, the symptoms of muscle fatigue are most commonly treated with inhibitors of acethylcholineesterase of which neostigmine and pyridostigmine are examples. Also, neostigmine is the most commonly used reversal agent of neuromuscular blocked after surgery. […] FIG. 5A-D show recordings of nerve-stimulated force production at different tubocurarine concentrations when tested under the four experimental conditions. […] To quantify the effect of compounds on tubocurarine sensitivity, the force at the different tubocurarine concentrations was determined. In plots of nerve-stimulated force against tubocurarine concentration (FIG. 5E) Kd,tub was determined by fitting four parameter sigmoidal functions to the data and the Kd,tub for the different compounds have been collected in Table 4.

[4] = test system: rat soleus muscles; assay type: cell-based; conditions: 10 and 25 μM; 1 μM μ-conotoxin GiiiB
[5] = test system: isolated rat soleus muscles; assay: Recovery of nerve-stimulated force in isolated rat soleus muscles exposed to sub-maximal tubocurarine; conditions: Rattus norvegicus, 40 min; read-out: 50 μM % change after addition
Description: Experiments were performed using rat soleus muscles from either young (4-wk-old) or adult Wistar rats (12-14-week-old). Animal handling, killing and isolation of muscle is described elsewhere All experiments were performed using normal Krebs-Ringer bicarbonate solution (NKR). In solutions with elevated Mg^2+, MgCl2 was added to NKR-solution causing minor increases in osmolarity and ionic strength. In solutions with elevated K^+, 4 mM NaCl was replaced by 4 mM KCl in the NKR.
In all contraction experiments, isometric force production was determined and force produced during contractions was quantified by measuring the integral of the force response (AUC). Stimulation and force recordings have been described elsewhere. […] In these latter experiments, extracellular recordings of action potentials (M-waves) could be measured without temporal overlap with stimulation artefacts.
The aim was to find compounds that by inhibition of CIC-1 channels can recover nerve-stimulated force under conditions of fatigue including conditions where fatigue is caused by compromised neuromuscular transmission. Neuromuscular transmission dysfunction can develop because of both pre- and/or post-synaptic complications in connection with a disorder or as part of neuromuscular blockade during/after surgery. In the initial series of drug testing, experiments were performed with isolated muscles in the presence of sub-maximal ACh receptor antagonist tubocurarine. Since the inclusion of tubocurarine caused a partial loss of neuromuscular transmission this experiment mimics the conditions in myasthenia gravis and neuromuscular blockade. To mimic conditions with pre-synaptic complication (Lambert Eaton syndrome, motor neuron disorder, polyneuropathy) the intact nerve-muscle preparations were incubated at elevated extracellular Mg^2+, which is known to suppress release of ACh from nerve terminals of motor neurons.
To identify CIC-1 inhibitors that could be used for treatment of neuromuscular disorders we repeated the experiment shown in FIG. 2A but instead of adding 9-AC we added the compounds of interest in different concentrations within the range from 10 to 500 μM. […] For comparison with the muscle only exposed to tubocurarine (grey trace), the two traces have been overlaid. […] For comparison, muscles only exposed to tubocurarine have been included. The dotted line indicates the recovery of force with C8 when compared to the force production before its addition. This value was used in Table 1 for evaluation of the efficacy of the different compounds in recovering force.

[6] = test system: rats; assay: Rotarod running performance of rats after I.P. tubocurarine (myasthenia like phenotype); assay type: in vivo, rat; conditions: 20 mg/kg I.P., 2 hrs before tubocurarine 0.13 mg/kg
Description: FIGS. 9A-9B. […] FIG. 9A illustrates the design of the experiments. Prior to Day One the animals had been familiarized to the rotarod in three training sessions distributed over two days.
as §1
In the first series of in vivo experiments, myasthenia gravis was simply mimicked by I.P. injection of tubocurarine (0.13 mg/kg) in animals that had been familiarized to running on the rotarod. On the first of two consecutive days, tubocurarine was injected I.P. and the running performance of the animal was tested 21 minutes after this injection. On the second day of experimentation, the animals first performed a test run to ensure that they were no longer affected by the tubocurarine injected the day before. […]

[7] = molecular target: T1, CIC-1 ion channels (Homo sapiens, UniProt P35523); assay: Resting membrane conductance (Gm), three-electrode technique, human muscle: Kd for CIC-1 inhibition; assay type: cell-based; conditions: concentration that reduced Gm by 50%
T1 construct: Isolated soleus muscles from adult rats or human abdominal muscles preparations were placed in a chamber; from tissue; host or cells: human abdominal muscle from patients

[8] = test system: isolated human muscles; conditions: 150 μM; elevated K+ and TTX

T1 sequence (P35523 whole entry): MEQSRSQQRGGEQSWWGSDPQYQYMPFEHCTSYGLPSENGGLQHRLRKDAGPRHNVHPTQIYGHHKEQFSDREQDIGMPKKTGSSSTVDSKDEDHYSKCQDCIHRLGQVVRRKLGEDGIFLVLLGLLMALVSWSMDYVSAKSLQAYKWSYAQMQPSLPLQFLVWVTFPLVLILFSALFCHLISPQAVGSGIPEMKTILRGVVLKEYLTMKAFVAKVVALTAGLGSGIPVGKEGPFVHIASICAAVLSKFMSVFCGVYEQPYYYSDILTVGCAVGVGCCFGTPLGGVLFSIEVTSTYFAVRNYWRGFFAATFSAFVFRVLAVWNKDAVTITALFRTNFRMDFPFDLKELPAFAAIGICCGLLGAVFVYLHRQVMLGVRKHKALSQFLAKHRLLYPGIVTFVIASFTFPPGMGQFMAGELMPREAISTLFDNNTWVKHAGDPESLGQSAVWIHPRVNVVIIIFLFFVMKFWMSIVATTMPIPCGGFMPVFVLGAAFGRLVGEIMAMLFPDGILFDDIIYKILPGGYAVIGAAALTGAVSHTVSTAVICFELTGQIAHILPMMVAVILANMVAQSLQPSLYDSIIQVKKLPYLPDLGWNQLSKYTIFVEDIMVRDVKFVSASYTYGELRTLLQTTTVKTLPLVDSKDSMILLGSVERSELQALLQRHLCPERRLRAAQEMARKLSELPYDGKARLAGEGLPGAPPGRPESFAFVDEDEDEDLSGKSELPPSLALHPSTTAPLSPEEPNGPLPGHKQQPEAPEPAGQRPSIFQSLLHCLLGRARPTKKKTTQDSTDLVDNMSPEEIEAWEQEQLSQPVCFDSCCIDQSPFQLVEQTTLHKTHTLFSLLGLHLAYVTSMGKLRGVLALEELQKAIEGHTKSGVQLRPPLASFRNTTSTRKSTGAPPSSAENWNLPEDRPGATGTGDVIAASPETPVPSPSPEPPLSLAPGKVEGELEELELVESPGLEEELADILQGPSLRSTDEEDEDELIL

C[C@H](Oc1ccc(Br)cc1)C(=O)O [Compound C8, (2S)-2-(4-bromophenoxy)propanoic acid]
rotarod performance after injection ([1]; 20 mg/kg): decline was reduced
rotarod performance after injection ([1]; 30 mg/kg): clear recovery of performance
effect of combination on recovery of neuromuscular transmission ([2]; C8 and 3,4-diaminopyridine together): unexpected synergistic effect
Kd ([2]; Compound (50 μM) + 3,4-AP (10 μM)): 7.8 ± 0.5 mM
Kd ([2]; Compound (50 μM) alone): 4 ± 0.1 mM
Kd ([3]; Compound (50 μM) + Neostigmine (10 nM)): 218 ± 18 nM
Kd ([3]; Compound (50 μM) + Pyridostigmine (100 nM)): 186 ± 5 nM
Kd ([3]; Compound (50 μM) alone): 177 ± 7 nM
EPP amplitude [4]: significantly larger EPPs
activation at 50 µM [5]: 16%
increase in distance run on the second day compared to the first day [6]: around 150%
Kd [7]: 5.5 µM
contractile force [8]: markedly recovery
